Measurements as given in ChEMBL document CHEMBL5126613, “Novel CA(1-7)M(2-9) Analogs: Synthesis, Characterization, and Antibacterial Evaluation” (ACS Med Chem Lett, 2022).

Legend:
Escherichia coli = assay: Antibacterial activity against Escherichia coli ATCC 25922 assessed as reduction in bacterial growth measured for 18 to 20 hrs by microbroth dilution method; format: functional; settings: time 18-20 hrs
Pseudomonas aeruginosa = assay: Antibacterial activity against Pseudomonas aeruginosa ATCC 27853 assessed as reduction in bacterial growth measured for 18 to 20 hrs by microbroth dilution method; format: functional; settings: time 18-20 hrs
Staphylococcus aureus = assay: Antibacterial activity against Staphylococcus aureus ATCC 29213 assessed as reduction in bacterial growth measured for 18 to 20 hrs by microbroth dilution method; format: functional; settings: time 18-20 hrs
Bacillus subtilis = assay: Antibacterial activity against Bacillus subtilis ATCC 6051 assessed as reduction in bacterial growth measured for 18 to 20 hrs by microbroth dilution method; format: functional; settings: time 18-20 hrs
[1] = Hemolytic activity in sheep RBC assessed as hemolysis incubated for 30 mins by microplate reader method; format: toxicity, cell-based, Ovis aries, Erythrocyte; settings: sheep red blood cells (erythrocytes), read-out: Activity
[2] = Hemolytic activity in sheep RBC assessed as 50% hemolysis incubated for 30 mins by microplate reader method; format: toxicity, cell-based, Ovis aries, Erythrocyte; settings: sheep red blood cells (erythrocytes)
[3] = (§1) Selectivity index, ratio of HC50 for hemolytic activity in sheep RBC assessed as 50% hemolysis incubated for 30 mins by microplate reader method to MIC for antibacterial activity against Escherichia coli ATCC 25922 assessed as reduction in bacterial growth measured for 18 to 20 hrs by microbroth dilution method; format: toxicity; settings: sheep red blood cells (erythrocytes), read-out: Selectivity Index
[4] = as §1, with “Pseudomonas aeruginosa” for “Escherichia coli”, “27853” for “25922”; format: toxicity; settings: sheep red blood cells (erythrocytes), read-out: Selectivity Index
[5] = as §1, with “Staphylococcus aureus” for “Escherichia coli”, “29213” for “25922”; format: toxicity; settings: sheep red blood cells (erythrocytes), read-out: Selectivity Index
[6] = as §1, with “Bacillus subtilis” for “Escherichia coli”, “6051” for “25922”; format: toxicity; settings: sheep red blood cells (erythrocytes), read-out: Selectivity Index
Trypsin [7] = molecular target: T1, Trypsin (Homo sapiens, UniProt P07477+P07478+P35030); assay: Stability of compound assessed as trypsin (unknown origin)-mediated compound degradation measured at 3 mins by LCMS analysis; format: ADME, protein assay; settings: 0.05 h
Trypsin [8] = molecular target: T1, Trypsin; assay: Stability of compound assessed as trypsin (unknown origin) mediated compound degradation measured at 4.5 hrs by LCMS analysis; format: ADME, protein assay; settings: read-out: Drug degradation
Trypsin [9] = molecular target: T1, Trypsin; assay: Stability of compound assessed as trypsin (unknown origin) mediated compound degradation by measuring H-O1WO3LFO6O7IGAVLO13VL-NH2 level measured at 15 mins by LCMS analysis; format: protein assay
Trypsin [10] = molecular target: T1, Trypsin; assay: Stability of compound assessed as trypsin (unknown origin) mediated compound degradation by measuring H-O1WO3LFO6O7IGAVLO13VL-NH2 level measured at 60 mins by LCMS analysis; format: protein assay
Trypsin [11] = molecular target: T1, Trypsin; assay: Stability of compound assessed as trypsin (unknown origin) mediated compound degradation by measuring H-O1WO3LFO6O7IGAVLO13VL-NH2 level measured at 120 mins by LCMS analysis; format: protein assay
Trypsin [12] = molecular target: T1, Trypsin; assay: Stability of compound assessed as trypsin (unknown origin) mediated compound degradation by measuring H-O1WO3LFO6O7IGAVLO13VL-NH2 level measured at 270 mins by LCMS analysis; format: protein assay
Trypsin [13] = molecular target: T1, Trypsin; assay: Stability of compound assessed as trypsin (unknown origin) mediated compound degradation by measuring H-WO3LFO6-OH level measured at 15 mins by LCMS analysis; format: protein assay
Trypsin [14] = molecular target: T1, Trypsin; assay: Stability of compound assessed as trypsin (unknown origin) mediated compound degradation by measuring H-WO3LFO6-OH level measured at 60 mins by LCMS analysis; format: protein assay
Trypsin [15] = molecular target: T1, Trypsin; assay: Stability of compound assessed as trypsin (unknown origin) mediated compound degradation by measuring H-WO3LFO6-OH level measured at 120 mins by LCMS analysis; format: protein assay
Trypsin [16] = molecular target: T1, Trypsin; assay: Stability of compound assessed as trypsin (unknown origin) mediated compound degradation by measuring H-WO3LFO6-OH level measured at 270 mins by LCMS analysis; format: protein assay
Trypsin [17] = molecular target: T1, Trypsin; assay: Stability of compound assessed as trypsin (unknown origin) mediated compound degradation by measuring H-O1WO3LFO6O7IGAVLO13-OH level measured at 60 mins by LCMS analysis; format: protein assay
Trypsin [18] = molecular target: T1, Trypsin; assay: Stability of compound assessed as trypsin (unknown origin) mediated compound degradation by measuring H-O1WO3LFO6O7IGAVLO13-OH level measured at 120 mins by LCMS analysis; format: protein assay
Trypsin [19] = molecular target: T1, Trypsin; assay: Stability of compound assessed as trypsin (unknown origin) mediated compound degradation by measuring H-O1WO3LFO6O7IGAVLO13-OH level measured at 270 mins by LCMS analysis; format: protein assay
Trypsin [20] = molecular target: T1, Trypsin; assay: Stability of compound assessed as trypsin (unknown origin) mediated compound degradation by measuring H-O7IGAVLO13VL-NH2 level measured at 60 mins by LCMS analysis; format: protein assay
Trypsin [21] = molecular target: T1, Trypsin; assay: Stability of compound assessed as trypsin (unknown origin) mediated compound degradation by measuring H-O7IGAVLO13VL-NH2 level measured at 120 mins by LCMS analysis; format: protein assay
Trypsin [22] = molecular target: T1, Trypsin; assay: Stability of compound assessed as trypsin (unknown origin) mediated compound degradation by measuring H-O7IGAVLO13VL-NH2 level measured at 270 mins by LCMS analysis; format: protein assay
Trypsin [23] = molecular target: T1, Trypsin; assay: Stability of compound assessed as trypsin (unknown origin) mediated compound degradation by measuring H-O1WO3LFO6-OH level measured at 15 mins by LCMS analysis; format: protein assay
Trypsin [24] = molecular target: T1, Trypsin; assay: Stability of compound assessed as trypsin (unknown origin) mediated compound degradation by measuring H-O1WO3LFO6-OH level measured at 60 mins by LCMS analysis; format: protein assay
Trypsin [25] = molecular target: T1, Trypsin; assay: Stability of compound assessed as trypsin (unknown origin) mediated compound degradation by measuring H-O1WO3LFO6-OH level measured at 120 mins by LCMS analysis; format: protein assay
Trypsin [26] = molecular target: T1, Trypsin; assay: Stability of compound assessed as trypsin (unknown origin) mediated compound degradation by measuring H-O1WO3LFO6-OH level measured at 270 mins by LCMS analysis; format: protein assay
Trypsin [27] = molecular target: T1, Trypsin; assay: Stability of compound assessed as trypsin (unknown origin) mediated compound degradation by measuring H-O1WO3LFO6O7-OH level measured at 15 mins by LCMS analysis; format: protein assay
Trypsin [28] = molecular target: T1, Trypsin; assay: Stability of compound assessed as trypsin (unknown origin) mediated compound degradation by measuring H-O1WO3LFO6O7-OH level measured at 60 mins by LCMS analysis; format: protein assay
Trypsin [29] = molecular target: T1, Trypsin; assay: Stability of compound assessed as trypsin (unknown origin) mediated compound degradation by measuring H-O1WO3LFO6O7-OH level measured at 120 mins by LCMS analysis; format: protein assay
Trypsin [30] = molecular target: T1, Trypsin; assay: Stability of compound assessed as trypsin (unknown origin) mediated compound degradation by measuring H-O1WO3LFO6O7-OH level measured at 270 mins by LCMS analysis; format: protein assay

Molecule: H-KWKLFKRIGAVLKVL-NH2
- MIC (Escherichia coli): 4 µg/mL
- MIC (Pseudomonas aeruginosa): 8 µg/mL
- MIC (Staphylococcus aureus): 4 µg/mL
- MIC (Bacillus subtilis): 64 µg/mL
- hemolysis at 0.5 h [1]: 10%
- HC50 at 0.5 h [2]: > 1000 µg/mL
- selectivity ratio at 30 min [3]: > 250
- selectivity ratio at 30 min [4]: > 125
- selectivity ratio at 30 min [5]: > 250
- selectivity ratio at 30 min [6]: > 16

Molecule: H-KWKLFKKIGAVLKVL-NH2
- MIC (Escherichia coli): 4 µg/mL
- MIC (Pseudomonas aeruginosa): 8 µg/mL
- MIC (Staphylococcus aureus): 4 µg/mL
- MIC (Bacillus subtilis): 32 µg/mL
- hemolysis at 0.5 h [1]: 10%
- HC50 at 0.5 h [2]: 690 µg/mL
- selectivity ratio at 30 min [3]: 173
- selectivity ratio at 30 min [4]: 86
- selectivity ratio at 30 min [5]: 173
- selectivity ratio at 30 min [6]: 22
- Stability (Trypsin [7]): Unstable

Molecule: H-KWKLFRKIGAVLKVL-NH2
- MIC (Escherichia coli): 4 µg/mL
- MIC (Pseudomonas aeruginosa): 8 µg/mL
- MIC (Staphylococcus aureus): 4 µg/mL
- MIC (Bacillus subtilis): 64 µg/mL
- hemolysis at 0.5 h [1]: 10%
- HC50 at 0.5 h [2]: 935 µg/mL
- selectivity ratio at 30 min [3]: 234
- selectivity ratio at 30 min [4]: 117
- selectivity ratio at 30 min [5]: 234
- selectivity ratio at 30 min [6]: 15

Molecule: CC[C@H](C)[C@H](NC(=O)[C@H](CCCN)NC(=O)[C@H](CCCN)NC(=O)[C@H](Cc1ccccc1)NC(=O)[C@H](CC(C)C)NC(=O)[C@H](CCCN)NC(=O)[C@H](Cc1c[nH]c2ccccc12)NC(=O)[C@@H](N)CCCN)C(=O)NCC(=O)N[C@@H](C)C(=O)N[C@H](C(=O)N[C@@H](CC(C)C)C(=O)N[C@@H](CCCN)C(=O)N[C@H](C(=O)N[C@@H](CC(C)C)C(N)=O)C(C)C)C(C)C
- hemolysis at 0.5 h [1]: 10%
- HC50 at 0.5 h [2]: > 1000 µg/mL
- selectivity ratio at 30 min [3]: > 250
- selectivity ratio at 30 min [4]: > 125
- selectivity ratio at 30 min [5]: > 125
- selectivity ratio at 30 min [6]: > 31
- metabolised at 4.5 h (Trypsin [8]): 58%

Molecule: H-RWKLFKKIGAVLKVL-NH2
- MIC (Escherichia coli): 4 µg/mL
- MIC (Pseudomonas aeruginosa): 8 µg/mL
- MIC (Staphylococcus aureus): 4 µg/mL
- MIC (Bacillus subtilis): 32 µg/mL
- hemolysis at 0.5 h [1]: 10%
- HC50 at 0.5 h [2]: 450 µg/mL
- selectivity ratio at 30 min [3]: 113
- selectivity ratio at 30 min [4]: 56
- selectivity ratio at 30 min [5]: 113
- selectivity ratio at 30 min [6]: 14

Molecule: CC[C@H](C)[C@H](NC(=O)[C@H](CCCN)NC(=O)[C@H](CCCN)NC(=O)[C@H](Cc1ccccc1)NC(=O)[C@H](CC(C)C)NC(=O)[C@H](CCCN)NC(=O)[C@H](Cc1c[nH]c2ccccc12)NC(=O)[C@@H](N)CCCN)C(=O)NCC(=O)N[C@H](C)C(=O)N[C@H](C(=O)N[C@@H](CC(C)C)C(=O)N[C@@H](CCCN)C(=O)N[C@H](C(=O)N[C@@H](CC(C)C)C(N)=O)C(C)C)C(C)C
- Drug degradation (Trypsin [9]): 98.1%
- Drug degradation (Trypsin [10]): 89.4%
- Drug degradation (Trypsin [11]): 79.4%
- Drug degradation (Trypsin [12]): 58.3%
- Drug degradation (Trypsin [13]): 0.6%
- Drug degradation (Trypsin [14]): 2.8%
- Drug degradation (Trypsin [15]): 5.6%
- Drug degradation (Trypsin [16]): 12.1%
- Drug degradation (Trypsin [17]): 0.5%
- Drug degradation (Trypsin [18]): 1%
- Drug degradation (Trypsin [19]): 2.2%
- Drug degradation (Trypsin [20]): 0.9%
- Drug degradation (Trypsin [21]): 1.6%
- Drug degradation (Trypsin [22]): 2.5%
- Drug degradation (Trypsin [23]): 0.9%
- Drug degradation (Trypsin [24]): 4.3%
- Drug degradation (Trypsin [25]): 8.4%
- Drug degradation (Trypsin [26]): 17.3%
- Drug degradation (Trypsin [27]): 0.4%
- Drug degradation (Trypsin [28]): 2.1%
- Drug degradation (Trypsin [29]): 4%
- Drug degradation (Trypsin [30]): 7.6%
